Data from patent US6933321B2, “Antiandrogenic biphenyls” (Endorecherche, Inc., priority 2002, dated 2005).
pIC50: −log10 of the molar value. Read-outs that look alike come from different tables or passages of the source.

System: Shionogi mouse mammary carcinoma cells
Test: Antiandrogenic activity on DHT-stimulated Shionogi mouse mammary carcinoma cell number
Assay type: cell-based
Details: for pIC50 / A = Ki OH-Flu/Ki compound: inhibition of DHT-stimulated Shionogi cell number; for pIC50: 10-12 days, read-out: Antiandrogenic activity IC50; for A = Ki OH-Flu/Ki compound: ratio of Ki of hydroxyflutamide versus tested compound, higher values preferable; for IC50: read-out: Antiandrogenic activity IC50 (nM)

Row | pIC50 | Structure (SMILES) | pIC50 (Mus musculus) | A = Ki OH-Flu/Ki compound | IC50 (Mus musculus)
1 | – | N#Cc1ccc(-c2cc(F)cc(F)c2)cc1C(F)(F)F [EM-3974] | < 6.30 | <0.2 | –
2 | – | N#Cc1ccc(-c2ccc(C#N)c(C(F)(F)F)c2)c(Cl)c1 [EM-4205] | – | 3.0 | 52 nM
3 | – | N#Cc1ccc(-c2ccc(F)cc2)cc1 [EM-3978] | < 6.30 | <0.2 | –
4 | – | N#Cc1ccc(-c2cc(F)c(F)c(F)c2)cc1C(F)(F)F [EM-4116] | < 6.30 | <0.2 | –
5 | – | N#Cc1ccc(-c2ccc(C#N)c(F)c2)cc1 [EM-4280] | < 6.30 | <0.2 | –
6 | – | N#Cc1ccc(-c2ccc(C#N)c(C(F)(F)F)c2)c([N+](=O)[O-])c1 [EM-4253] | < 6.30 | <0.2 | –
7 | – | COc1ccc(-c2ccc(C#N)cc2)cc1C(F)(F)F [EM-4246] | < 6.30 | <0.2 | –
8 | – | N#Cc1ccc(-c2ccc(F)c(C(F)(F)F)c2)cc1 [EM-4249] | < 6.30 | <0.2 | –
9 | – | N#Cc1ccc(-c2ccc(F)cc2C(=O)N2CCCC2)cc1C(F)(F)F [EM-5014] | < 6.30 | <0.2 | –
10 | – | N#Cc1ccc(-c2ccc(F)cc2C(=O)N2CCOCC2)cc1C(F)(F)F [EM-5021] | < 6.30 | <0.2 | –
11 | – | N#Cc1ccc(-c2ccccc2C(F)(F)F)cc1C(F)(F)F [EM-4034] | < 6.30 | <0.2 | –
12 | – | N#Cc1ccc(-c2ccc(F)cc2F)cc1Cl [EM-4283, 3-chloro-2′,4′-difluoro-biphenyl-4-carbonitrile] | – | 2.3 | 37 nM
13 | – | CCN(CC)C(=O)c1cc(F)ccc1-c1ccc(C#N)c(C(F)(F)F)c1 [EM-4841] | < 6.30 | <0.2 | –
14 | < 6.30 | N#Cc1ccc(-c2ccc(F)cc2C(=O)Nc2ccc(Cl)cc2)cc1C(F)(F)F [EM-5086] | – | <0.2 | –
15 | – | N#Cc1ccc(-c2cc(NC(=O)c3ccc(Cl)cc3)c(F)cc2C(N)=O)cc1C(F)(F)F [EM-5003] | < 6.30 | <0.2 | –
16 | – | COc1ccc(Cl)cc1-c1ccc(C#N)c(C(F)(F)F)c1 [EM-3747] | < 6.30 | <0.2 | –
17 | – | N#Cc1ccc(-c2c(F)cc(F)cc2C(F)(F)F)cc1C(F)(F)F [EM-5004] | < 6.30 | <0.2 | –
18 | – | N#Cc1ccc(-c2ccc(Cl)cc2)cc1C(F)(F)F [EM-3703] | – | 0.3 | 97 nM
19 | – | COc1ccc(-c2ccc(C#N)cc2)cc1Br [EM-4036] | < 6.30 | <0.2 | –
20 | – | N#Cc1ccc(-c2ccc(F)cc2)cc1C(F)(F)F [EM-3705] | 6.89 | 0.7 | –

Row | pIC50 | Structure (SMILES) | pIC50 (Mus musculus) | A = Ki OH-Flu/Ki compound | IC50 (Mus musculus)
21 | – | CCCCNC(=O)c1cc(F)ccc1-c1ccc(C#N)c(C(F)(F)F)c1 [EM-4856] | < 6.30 | <0.2 | –
22 | – | N#Cc1ccc(-c2ccc(F)cc2[N+](=O)[O-])cc1C(F)(F)F [EM-4234] | – | 3.2 | 43.2 nM
23 | – | CN(C)C(=O)Nc1ccc(-c2ccc(C#N)c(C(F)(F)F)c2)cc1 [EM-4206] | < 6.30 | <0.2 | –
24 | – | Cc1cc(C#N)c(Cl)cc1-c1ccc(F)cc1F [EM-5112] | – | 1.1 | 97 nM
25 | – | CN(C)c1ccc(NC(=O)c2cc(F)ccc2-c2ccc(C#N)c(C(F)(F)F)c2)cc1 [EM-5083] | < 6.30 | <0.2 | –
26 | – | N#Cc1ccc(-c2ccc(F)cc2C(=O)NCc2ccccc2)cc1C(F)(F)F [EM-5085] | < 6.30 | <0.2 | –
27 | – | N#Cc1ccc(-c2ccc(C#N)cc2)cc1 [EM-3993] | < 6.30 | <0.2 | –
28 | – | COc1ccc(-c2c(F)cc(F)cc2F)cc1C(F)(F)F [EM-4833] | < 6.30 | <0.2 | –
29 | – | N#Cc1ccc(-c2c(F)cc(F)cc2F)cc1C(F)(F)F [EM-4203] | 6.55 | 0.6 | –
30 | – | COc1ccc(-c2ccc(F)cc2F)cc1Br [EM-4871] | < 6.30 | <0.2 | –
31 | – | N#Cc1ccc(-c2ccc(F)cc2C(=O)Nc2ccc(F)cc2)cc1C(F)(F)F [EM-5018] | < 6.30 | <0.2 | –
32 | – | CC(=O)Nc1ccc(-c2ccc(C#N)c(C(F)(F)F)c2)cc1 [EM-4243] | < 6.30 | <0.2 | –
33 | – | N#Cc1ccc(-c2ccc(C#N)c(Cl)c2)cc1 [EM-4281] | 6.84 | 0.6 | –
34 | – | N#Cc1cc(F)ccc1-c1ccc(C#N)c(C(F)(F)F)c1 [EM-4096] | < 6.30 | <0.2 | –
35 | – | C[S+]([O-])c1ccc(-c2ccc(C#N)c(C(F)(F)F)c2)cc1 (stereo not shown) [EM-3812] | < 6.30 | <0.2 | –
36 | – | N#Cc1ccc(-c2ccc(C#N)c(C(F)(F)F)c2)cc1F [EM-4065] | – | <0.2 | > 500 nM
37 | – | CNC(=O)c1cc(F)ccc1-c1ccc(C#N)c(C(F)(F)F)c1 [EM-4961] | < 6.30 | <0.2 | –
38 | – | N#Cc1cc(-c2ccc(C#N)c(C(F)(F)F)c2)ccc1F [EM-4056] | < 6.30 | <0.2 | –
39 | – | N#Cc1ccc(-c2ccc(N)cc2C(F)(F)F)cc1C(F)(F)F [EM-4154] | 6.84 | 0.7 | –
40 | – | CS(=O)(=O)Nc1ccc(-c2ccc(C#N)c(C(F)(F)F)c2)cc1 [EM-4244] | < 6.30 | <0.2 | –

Row | pIC50 | Structure (SMILES) | pIC50 (Mus musculus) | A = Ki OH-Flu/Ki compound | IC50 (Mus musculus)
41 | – | COc1ccc(-c2ccc(C#N)cc2)cc1 [EM-3704] | < 6.30 | <0.2 | –
42 | – | N#Cc1ccc(-c2cc([N+](=O)[O-])c(F)cc2F)cc1C(F)(F)F [EM-4867] | < 6.30 | <0.2 | –
43 | – | N#Cc1ccc(-c2c(F)cc(F)cc2[N+](=O)[O-])cc1C(F)(F)F [EM-4948] | < 6.30 | <0.2 | –
44 | – | CS(=O)(=O)c1cc(-c2ccc(F)cc2F)ccc1C#N [EM-4292] | < 6.30 | <0.2 | –
45 | – | Cc1ccc(-c2ccc(C#N)c(C(F)(F)F)c2)c(C(F)(F)F)c1 [EM-4185] | 6.71 | 0.7 | –
46 | – | N#Cc1ccc(-c2ccccc2F)cc1C(F)(F)F [EM-3976] | < 6.30 | <0.2 | –
47 | – | N#Cc1ccc(-c2ccc(Cl)c(C(F)(F)F)c2)cc1 [EM-4248] | < 6.30 | <0.2 | –
48 | – | N#Cc1ccc(-c2ccc(F)cc2C(N)=O)cc1Cl [EM-4849] | < 6.30 | <0.2 | –
49 | – | CCN(CC)C(=O)c1ccc(-c2ccc(C#N)c(C(F)(F)F)c2)cc1 [EM-3987] | < 6.30 | <0.2 | –
50 | – | N#Cc1ccc(-c2ccc(C#N)c(C(F)(F)F)c2)c(C(N)=O)c1 [EM-4320] | < 6.30 | <0.2 | –
51 | – | CC(O)(c1ccc(-c2ccc(C#N)c(C(F)(F)F)c2)cc1)C(F)(F)F (stereo not shown) [EM-4026] | < 6.30 | <0.2 | –
52 | – | N#Cc1ccc(-c2ccc(F)cc2F)cc1C(F)(F)F [EM-3975] | 6.88 | 0.77 | –
53 | – | N#Cc1ccc(-c2ccc(C#N)c(C(F)(F)F)c2)c(F)c1 [EM-4189] | 6.88 | 1.1 | –
54 | – | N#Cc1ccc(-c2ccc(F)c(C(F)(F)F)c2)cc1C(F)(F)F [EM-4093] | < 6.30 | <0.2 | –
55 | – | CSc1ccc(-c2ccc(C#N)c(C(F)(F)F)c2)cc1 [EM-3732] | < 6.30 | <0.2 | –
56 | – | N#Cc1cc(F)c(-c2ccc(F)cc2F)cc1Cl [EM-5111] | < 6.30 | <0.2 | –
57 | – | CSc1ccc(NC(=O)c2cc(F)ccc2-c2ccc(C#N)c(C(F)(F)F)c2)cc1 [EM-5082] | < 6.30 | <0.2 | –
58 | – | N#Cc1ccc(-c2ccc(F)cc2C(=O)Nc2ccc(F)cc2F)cc1C(F)(F)F [EM-5038] | < 6.30 | <0.2 | –
59 | – | N#Cc1ccc(-c2ccc(C#N)c(C(F)(F)F)c2)cc1C(F)(F)F [EM-4012] | < 6.30 | <0.2 | –
